Laboratory results: patent US8598314B2 (priority 2007, dated 2013)

Columns and labels:
[1] = target: T1, human GIP receptor (HEK-GIPR) (Homo sapiens, UniProt P48546); assay: GIP receptor binding (RBA) displacement assay; conditions: for inhibition at 0.01 µM: read-out: GIP RBA % inhibition at 10 nM
T1 construct: expressed in transfected cells
T1 sequence (P48546 22-466): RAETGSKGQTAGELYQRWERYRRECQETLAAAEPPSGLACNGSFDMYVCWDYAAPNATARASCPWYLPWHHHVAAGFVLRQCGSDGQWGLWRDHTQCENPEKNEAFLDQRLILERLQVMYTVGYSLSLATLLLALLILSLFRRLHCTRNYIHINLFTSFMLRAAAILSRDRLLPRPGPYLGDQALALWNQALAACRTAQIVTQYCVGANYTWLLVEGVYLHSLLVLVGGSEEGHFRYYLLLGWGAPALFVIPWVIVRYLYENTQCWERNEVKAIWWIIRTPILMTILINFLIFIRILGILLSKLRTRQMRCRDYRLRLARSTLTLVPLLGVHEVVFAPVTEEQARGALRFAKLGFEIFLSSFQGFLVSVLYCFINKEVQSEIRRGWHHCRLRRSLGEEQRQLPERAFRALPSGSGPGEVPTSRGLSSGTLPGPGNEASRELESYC
Method: Membrane fractions were prepared from confluent cell cultures of HEK-GIPR, snap frozen, and stored at −80° C. until use. […] Reactions were allowed to proceed to equilibrium for 90 minutes at room temperature with constant shaking. The reaction mixtures were then filtered through 96-well glass fiber filter plates separating bound and unbound fractions of radioligand.

NIH/Swiss mice = assay: Oral glucose tolerance test (OGTT), glucose lowering; assay type: in vivo; conditions: 30 nM/kg, blood glucose
Method: . Test compounds were injected IP (t=0 min) immediately following baseline measurements of 2 hour fasted NIH/Swiss mice. Blood samples were taken at 60, 120, and 180 minutes after injection. In some assays, samples were also taken at 240 minutes after the injection. Blood glucose was measured with a One-Touch® Ultra® glucose meter (LifeScan, Inc., Milpitas, Calif.). […].
The tests were performed as described in Example 5.

GIP RBA % inhibition at 10 nM ([1]; 10 nM conjugate, 30 pM 125I-GIP, relative to human GIP (100%)) [%] | Compound | inhibition at 0.01 µM [1] [%] | OGTT (30 nM/kg) % maximal decrease (NIH/Swiss mice) [%]
 | CC[C@H](C)[C@H](NC(=O)[C@H](CO)NC(=O)[C@H](Cc1ccc(O)cc1)NC(=O)[C@H](CC(=O)O)NC(=O)[C@H](CO)NC(=O)[C@@H](NC(=O)[C@H](Cc1ccccc1)NC(=O)[C@@H](NC(=O)CNC(=O)[C@H](CCC(=O)O)NC(=O)[C@H](C)NC(=O)[C@H](Cc1ccc(O)cc1)NC(=O)COCCOCCNC(=O)COCCOCCNC(=O)CC[C@H](N)C(=O)N1CCC[C@H]1C#N)[C@@H](C)O)[C@@H](C)CC)C(=O)N[C@@H](C)C(=O)N[C@@H](CCSC)C(=O)N[C@@H](CC(=O)O)C(=O)N[C@@H](CCCCN)C(=O)N[C@H](C(=O)N[C@@H](Cc1c[nH]cn1)C(=O)N[C@@H](CCC(N)=O)C(=O)N[C@@H](CCC(N)=O)C(=O)N[C@@H](CC(=O)O)C(=O)N[C@@H](Cc1ccccc1)C(=O)N[C@H](C(=O)N[C@@H](CC(N)=O)C(=O)N[C@@H](Cc1c[nH]c2ccccc12)C(=O)N[C@@H](CC(C)C)C(=O)N[C@@H](CC(C)C)C(=O)N[C@@H](C)C(=O)N[C@@H](CCC(N)=O)C(=O)NC(CCCCN)C(N)=O)C(C)C)[C@@H](C)CC (stereo partly drawn) [N-(γ-L-Glu-2-(S)-cyanopyrrolidyl)-Ado-Ado) GIP(1-30)] | 32 | 
 | CC[C@H](C)[C@H](NC(=O)[C@H](CO)NC(=O)[C@H](Cc1ccc(O)cc1)NC(=O)[C@H](CC(=O)O)NC(=O)[C@H](CO)NC(=O)[C@@H](NC(=O)[C@H](Cc1ccccc1)NC(=O)[C@@H](NC(=O)CNC(=O)[C@H](CCC(=O)O)NC(=O)[C@@H](C)NC(=O)[C@@H](N)Cc1ccc(O)cc1)[C@@H](C)O)[C@@H](C)CC)C(=O)N[C@@H](C)C(=O)N[C@@H](CC(C)C)C(=O)N[C@@H](CC(=O)O)C(=O)N[C@@H](CCCCN)C(=O)N[C@H](C(=O)N[C@@H](Cc1c[nH]cn1)C(=O)N[C@@H](CCC(N)=O)C(=O)N[C@@H](CCC(N)=O)C(=O)N[C@@H](CC(=O)O)C(=O)N[C@@H](Cc1ccccc1)C(=O)N[C@H](C(=O)N[C@@H](CC(N)=O)C(=O)N[C@@H](Cc1c[nH]c2ccccc12)C(=O)N[C@@H](CC(C)C)C(=O)N[C@@H](CC(C)C)C(=O)N[C@@H](C)C(=O)N[C@@H](CCC(N)=O)C(=O)N[C@@H](CCCCN)C(=O)NCCC(=O)NCCC(=O)NCCCC[C@H](NC(=O)[C@@H]1CCC(=O)N1)C(=O)N[C@@H](Cc1c[nH]c2ccccc12)C(=O)N[C@@H](C)C(=O)N1CCC[C@H]1C(=O)O)C(C)C)[C@@H](C)CC [[^2D-Ala,^14Leu] GIP-(1-30)-β-Ala-β-Ala-Lys(α-NH-Pyroglutamoyl)-Trp-Ala-Pro-COOH] | 66 | 
 | CC[C@H](C)[C@H](NC(=O)[C@H](CO)NC(=O)[C@H](Cc1ccc(O)cc1)NC(=O)[C@H](CC(=O)O)NC(=O)[C@H](CO)NC(=O)[C@@H](NC(=O)[C@H](Cc1ccccc1)NC(=O)[C@@H](NC(=O)CNC(=O)[C@H](CCC(=O)O)NC(=O)[C@@H](C)NC(=O)[C@@H](N)Cc1ccc(O)cc1)[C@@H](C)O)[C@@H](C)CC)C(=O)N[C@@H](C)C(=O)N[C@@H](CCSC)C(=O)N[C@@H](CC(=O)O)C(=O)N[C@@H](CCCCN)C(=O)N[C@H](C(=O)N[C@@H](Cc1c[nH]cn1)C(=O)N[C@@H](CCC(N)=O)C(=O)N[C@@H](CCC(N)=O)C(=O)N[C@@H](CC(=O)O)C(=O)N[C@@H](Cc1ccccc1)C(=O)N[C@H](C(=O)N[C@@H](CC(N)=O)C(=O)N[C@@H](Cc1c[nH]c2ccccc12)C(=O)N[C@@H](CC(C)C)C(=O)N[C@@H](CC(C)C)C(=O)N[C@@H](C)C(=O)N[C@@H](CCC(N)=O)C(=O)N[C@@H](CCCCN)C(=O)NCCOCCOCC(=O)NCCOCCOCC(=O)NCCCCCCCCCCC(=O)NCCC(=O)NCCC(=O)NCCCC[C@H](NC(=O)[C@@H]1CCC(=O)N1)C(=O)N[C@@H](Cc1c[nH]c2ccccc12)C(=O)N[C@@H](C)C(=O)N1CCC[C@H]1C(=O)O)C(C)C)[C@@H](C)CC [[^2D-Ala]GIP-(1-30)-Ado-Ado-Aun-βAla-βAla-ε-NH-Lys(α-NH-Pyroglutamoyl)-Trp-Ala-Pro] | 70 | 
 | CC[C@H](C)[C@H](NC(=O)[C@H](CO)NC(=O)[C@H](Cc1ccc(O)cc1)NC(=O)[C@H](CC(=O)O)NC(=O)[C@H](CO)NC(=O)[C@@H](NC(=O)[C@H](Cc1ccccc1)NC(=O)[C@@H](NC(=O)CNC(=O)[C@H](CCC(=O)O)NC(=O)[C@@H](C)NC(=O)[C@@H](N)Cc1ccc(O)cc1)[C@@H](C)O)[C@@H](C)CC)C(=O)N[C@@H](C)C(=O)N[C@@H](CC(C)C)C(=O)N[C@@H](CC(=O)O)C(=O)N[C@@H](CCCCN)C(=O)N[C@H](C(=O)N[C@@H](Cc1c[nH]cn1)C(=O)N[C@@H](CCC(N)=O)C(=O)N[C@@H](CCC(N)=O)C(=O)N[C@@H](CC(=O)O)C(=O)N[C@@H](Cc1ccccc1)C(=O)N[C@H](C(=O)N[C@@H](CC(N)=O)C(=O)N[C@@H](Cc1c[nH]c2ccccc12)C(=O)N[C@@H](CC(C)C)C(=O)N[C@@H](CC(C)C)C(=O)N[C@@H](C)C(=O)N[C@@H](CCC(N)=O)C(=O)N[C@@H](CCCCN)C(=O)N1CCC[C@H]1C(=O)N[C@@H](CO)C(=O)N[C@@H](CO)C(=O)NCC(=O)N[C@@H](C)C(=O)N1CCC[C@H]1C(=O)N1CCC[C@H]1C(=O)N1CCC[C@H]1C(=O)N[C@@H](CO)C(=O)NCCOCCOCC(=O)NCCOCCOCC(=O)NCCCCCCCCCCC(=O)NCCC(=O)NCCC(=O)NCCCC[C@H](NC(=O)[C@@H]1CCC(=O)N1)C(=O)N[C@@H](Cc1c[nH]c2ccccc12)C(=O)N[C@@H](C)C(=O)N1CCC[C@H]1C(=O)O)C(C)C)[C@@H](C)CC [[^2D-Ala^14Leu] GIP(1-30)-exendin-4(31-39)-Ado-Ado-Aun-βAla-βAla-ε-NH-Lys(α-NH-Pyroglutamoyl)-Trp-Ala-Pro] | 86 | 
99 | [^14Leu] GIP(1-30)-exendin-4(31-39)-Ado-Lys-N-ε-(2-(S)-cyano pyrrolidyl) |  | −24
